For 1 compound, remaining binding results are on record in publication PMC8799717, “Pharmacological targeting PIKfyve and tubulin as an effective treatment strategy for double-hit lymphoma” (Cell Death Discovery, 2022).

Structures are written as SMILES.

Holding throughout (assay): biochemical
Parameters in all cases: KINOMEscan active-site-directed competition binding panel, 468 kinases, percent of DMSO control at 1 uM
What all share (conditions): KINOMEscan binding, percent of DMSO control; read-out: Ctrl%

In experiment [1] the target is ROS1 (Homo sapiens, UniProt P08922).
The target in experiment [2] is CAMK2D (Homo sapiens, UniProt Q13557).
Experiment [3] has as its target AKT2 (Homo sapiens, UniProt P31751).
Experiment [4] concerns the target HIPK4 (Homo sapiens, UniProt Q8NE63).
Experiment [5] deals with T1, ERK4 (Homo sapiens, UniProt P31152).
T1 construct: gene MAPK4

In experiment [6] the target is T2, ADCK3 (Homo sapiens, UniProt Q8NI60).
T2 construct: gene COQ8A

In experiment [7] the target is T3, RSK1(Kin.Dom.1-N-terminal) (Homo sapiens, UniProt Q15418).
T3 construct: gene RPS6KA1; Kin.Dom.1-N-terminal

The target of experiment [8] is T4, RSK4(Kin.Dom.2-C-terminal) (Homo sapiens, UniProt Q9UK32).
T4 construct: gene RPS6KA6; Kin.Dom.2-C-terminal

Experiment [9] concerns the target EGFR(L747-E749del, A750P) (Homo sapiens, UniProt P00533, A750P/DEL747-749).
Experiment [10] has as its target T5, YANK1 (Homo sapiens, UniProt Q8WU08).
T5 construct: gene STK32A

Experiment [11] concerns the target MAPKAPK2 (Homo sapiens, UniProt P49137).
Experiment [12] has as its target PIK3CD (Homo sapiens, UniProt O00329).
Experiment [13] has as its target T6, PFTAIRE2 (Homo sapiens, UniProt Q96Q40).
T6 construct: gene CDK15

Experiment [14] addresses TNNI3K (Homo sapiens, UniProt Q59H18).
Experiment [15] has as its target SRPK3 (Homo sapiens, UniProt Q9UPE1).
Experiment [16] deals with T7, MRCKA (Homo sapiens, UniProt Q5VT25).
T7 construct: gene CDC42BPA

Experiment [17] addresses T8, MST2 (Homo sapiens, UniProt Q13188).
T8 construct: gene STK3

The target of experiment [18] is T9, NDR1 (Homo sapiens, UniProt Q15208).
T9 construct: gene STK38

Experiment [19] deals with T10, RIPK5 (Homo sapiens, UniProt Q6XUX3).
T10 construct: gene DSTYK

Experiment [20] concerns the target ALK(L1196M) (Homo sapiens, UniProt Q9UM73, L1196M).
In experiment [21] the target is SNRK (Homo sapiens, UniProt Q9NRH2).
Experiment [22] deals with T11, ABL1(F317I)-phosphorylated (Homo sapiens, UniProt P00519, F317I).
T11 construct: phosphorylated

Experiment [23] deals with BRAF(V600E) (Homo sapiens, UniProt P15056, V600E).

ALK(L1196M), sequence (Q9UM73 whole entry L1196M): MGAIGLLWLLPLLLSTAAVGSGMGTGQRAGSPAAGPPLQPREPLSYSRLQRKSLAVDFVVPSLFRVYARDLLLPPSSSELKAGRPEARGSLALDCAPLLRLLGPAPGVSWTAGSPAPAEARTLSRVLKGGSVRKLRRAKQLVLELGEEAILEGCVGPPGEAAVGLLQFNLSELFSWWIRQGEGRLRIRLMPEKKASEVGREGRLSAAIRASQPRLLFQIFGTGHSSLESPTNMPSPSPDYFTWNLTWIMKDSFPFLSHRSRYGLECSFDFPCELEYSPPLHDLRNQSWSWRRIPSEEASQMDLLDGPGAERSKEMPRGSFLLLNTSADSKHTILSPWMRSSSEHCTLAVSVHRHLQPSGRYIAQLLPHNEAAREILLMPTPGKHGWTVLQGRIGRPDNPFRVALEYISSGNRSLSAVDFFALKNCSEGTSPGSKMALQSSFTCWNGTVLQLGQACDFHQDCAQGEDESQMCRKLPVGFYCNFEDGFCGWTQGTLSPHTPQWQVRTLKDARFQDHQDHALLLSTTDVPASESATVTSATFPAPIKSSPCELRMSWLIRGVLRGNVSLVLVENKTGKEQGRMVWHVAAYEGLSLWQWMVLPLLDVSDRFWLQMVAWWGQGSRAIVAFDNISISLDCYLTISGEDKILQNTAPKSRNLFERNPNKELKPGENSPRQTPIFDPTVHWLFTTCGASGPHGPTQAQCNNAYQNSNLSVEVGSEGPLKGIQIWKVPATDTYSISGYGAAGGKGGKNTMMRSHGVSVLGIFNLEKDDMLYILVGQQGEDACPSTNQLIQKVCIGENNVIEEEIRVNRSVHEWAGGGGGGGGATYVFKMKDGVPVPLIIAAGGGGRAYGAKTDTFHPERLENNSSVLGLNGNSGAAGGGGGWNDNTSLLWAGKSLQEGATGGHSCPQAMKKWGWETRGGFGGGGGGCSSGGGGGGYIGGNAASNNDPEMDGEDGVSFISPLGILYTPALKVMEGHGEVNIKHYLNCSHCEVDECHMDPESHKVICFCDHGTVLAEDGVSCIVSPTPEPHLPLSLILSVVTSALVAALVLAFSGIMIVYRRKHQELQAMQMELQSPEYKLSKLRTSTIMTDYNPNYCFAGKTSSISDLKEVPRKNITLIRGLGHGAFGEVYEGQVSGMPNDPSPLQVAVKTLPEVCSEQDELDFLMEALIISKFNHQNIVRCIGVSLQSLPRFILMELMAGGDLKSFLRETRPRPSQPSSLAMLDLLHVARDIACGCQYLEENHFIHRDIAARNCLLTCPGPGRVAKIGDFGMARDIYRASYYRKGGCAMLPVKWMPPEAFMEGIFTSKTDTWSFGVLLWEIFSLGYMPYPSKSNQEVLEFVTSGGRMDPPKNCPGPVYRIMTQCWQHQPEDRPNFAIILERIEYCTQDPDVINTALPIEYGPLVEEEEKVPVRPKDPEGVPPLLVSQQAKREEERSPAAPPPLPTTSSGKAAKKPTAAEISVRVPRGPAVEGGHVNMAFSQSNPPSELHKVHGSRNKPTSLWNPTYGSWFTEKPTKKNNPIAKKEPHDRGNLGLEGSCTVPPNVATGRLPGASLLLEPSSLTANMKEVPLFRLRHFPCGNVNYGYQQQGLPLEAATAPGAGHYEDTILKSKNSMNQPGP
T2 sequence (Q8NI60 whole entry): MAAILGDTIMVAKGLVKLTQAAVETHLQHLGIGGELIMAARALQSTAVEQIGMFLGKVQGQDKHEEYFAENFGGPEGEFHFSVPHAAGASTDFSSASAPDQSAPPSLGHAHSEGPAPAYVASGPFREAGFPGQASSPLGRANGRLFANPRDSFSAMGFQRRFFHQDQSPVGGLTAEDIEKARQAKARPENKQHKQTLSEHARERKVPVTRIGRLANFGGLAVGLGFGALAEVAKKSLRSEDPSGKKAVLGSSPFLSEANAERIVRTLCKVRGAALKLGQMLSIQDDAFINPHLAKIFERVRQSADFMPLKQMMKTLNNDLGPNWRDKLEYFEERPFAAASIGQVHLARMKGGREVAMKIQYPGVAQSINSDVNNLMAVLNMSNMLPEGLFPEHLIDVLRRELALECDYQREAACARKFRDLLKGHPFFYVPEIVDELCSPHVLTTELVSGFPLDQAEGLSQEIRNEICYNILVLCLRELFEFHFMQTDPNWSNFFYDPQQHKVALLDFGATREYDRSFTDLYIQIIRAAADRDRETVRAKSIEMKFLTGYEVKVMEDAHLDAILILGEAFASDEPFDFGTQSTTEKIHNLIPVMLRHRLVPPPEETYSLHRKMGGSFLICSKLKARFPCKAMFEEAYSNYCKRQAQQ
T3 sequence (Q15418 whole entry): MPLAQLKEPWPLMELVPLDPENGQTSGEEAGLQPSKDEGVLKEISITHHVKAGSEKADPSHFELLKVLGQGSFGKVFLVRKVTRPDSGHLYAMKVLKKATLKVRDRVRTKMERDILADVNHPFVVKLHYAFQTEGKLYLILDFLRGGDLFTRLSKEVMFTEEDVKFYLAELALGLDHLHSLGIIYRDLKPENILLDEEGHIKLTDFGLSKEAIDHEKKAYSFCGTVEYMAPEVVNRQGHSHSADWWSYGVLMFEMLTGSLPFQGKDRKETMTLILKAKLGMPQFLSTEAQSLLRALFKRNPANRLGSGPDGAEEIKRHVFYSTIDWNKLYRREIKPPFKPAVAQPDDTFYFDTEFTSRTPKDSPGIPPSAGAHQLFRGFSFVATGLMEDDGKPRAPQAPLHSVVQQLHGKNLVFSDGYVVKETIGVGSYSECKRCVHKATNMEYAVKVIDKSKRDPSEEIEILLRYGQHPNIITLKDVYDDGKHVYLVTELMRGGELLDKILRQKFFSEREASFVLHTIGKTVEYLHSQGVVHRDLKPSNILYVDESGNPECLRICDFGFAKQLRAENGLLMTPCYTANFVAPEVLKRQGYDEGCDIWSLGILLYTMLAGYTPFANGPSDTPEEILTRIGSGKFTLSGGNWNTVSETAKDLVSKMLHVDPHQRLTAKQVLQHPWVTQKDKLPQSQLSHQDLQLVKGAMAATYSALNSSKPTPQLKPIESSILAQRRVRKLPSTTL
T10 sequence (Q6XUX3 whole entry): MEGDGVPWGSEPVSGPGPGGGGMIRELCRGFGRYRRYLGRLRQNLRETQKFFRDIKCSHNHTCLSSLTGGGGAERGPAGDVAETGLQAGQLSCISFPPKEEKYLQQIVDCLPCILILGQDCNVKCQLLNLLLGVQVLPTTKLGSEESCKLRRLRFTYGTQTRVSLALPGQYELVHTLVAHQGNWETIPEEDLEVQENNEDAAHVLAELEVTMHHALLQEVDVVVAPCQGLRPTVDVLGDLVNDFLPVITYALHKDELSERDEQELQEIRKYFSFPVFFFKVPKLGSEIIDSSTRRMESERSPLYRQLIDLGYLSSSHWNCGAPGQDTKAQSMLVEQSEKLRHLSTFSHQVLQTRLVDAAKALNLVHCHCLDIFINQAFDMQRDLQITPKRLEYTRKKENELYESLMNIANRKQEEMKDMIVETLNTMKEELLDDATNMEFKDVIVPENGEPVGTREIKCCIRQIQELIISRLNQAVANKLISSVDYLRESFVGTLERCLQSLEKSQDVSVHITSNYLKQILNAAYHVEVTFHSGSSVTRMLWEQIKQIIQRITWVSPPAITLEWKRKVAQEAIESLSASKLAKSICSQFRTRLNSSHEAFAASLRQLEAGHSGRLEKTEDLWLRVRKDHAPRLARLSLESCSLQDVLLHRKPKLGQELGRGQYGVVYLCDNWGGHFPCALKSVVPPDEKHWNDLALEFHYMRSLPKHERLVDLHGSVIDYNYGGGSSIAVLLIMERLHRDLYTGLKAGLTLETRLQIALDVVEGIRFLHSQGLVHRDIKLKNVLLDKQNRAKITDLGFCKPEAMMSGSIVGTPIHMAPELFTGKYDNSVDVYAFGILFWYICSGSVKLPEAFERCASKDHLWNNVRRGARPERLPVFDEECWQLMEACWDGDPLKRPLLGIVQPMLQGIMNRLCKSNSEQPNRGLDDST
T5 sequence (Q8WU08 whole entry): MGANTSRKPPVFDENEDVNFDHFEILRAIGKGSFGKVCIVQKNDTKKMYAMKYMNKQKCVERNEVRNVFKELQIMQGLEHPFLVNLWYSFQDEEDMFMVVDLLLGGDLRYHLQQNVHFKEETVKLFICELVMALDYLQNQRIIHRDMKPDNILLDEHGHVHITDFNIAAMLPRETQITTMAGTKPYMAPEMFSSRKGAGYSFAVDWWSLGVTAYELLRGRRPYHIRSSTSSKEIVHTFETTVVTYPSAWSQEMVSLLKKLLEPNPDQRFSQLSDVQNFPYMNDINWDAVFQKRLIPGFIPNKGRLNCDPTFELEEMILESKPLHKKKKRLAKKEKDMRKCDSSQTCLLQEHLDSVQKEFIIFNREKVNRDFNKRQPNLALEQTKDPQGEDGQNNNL
T4 sequence (Q9UK32 whole entry): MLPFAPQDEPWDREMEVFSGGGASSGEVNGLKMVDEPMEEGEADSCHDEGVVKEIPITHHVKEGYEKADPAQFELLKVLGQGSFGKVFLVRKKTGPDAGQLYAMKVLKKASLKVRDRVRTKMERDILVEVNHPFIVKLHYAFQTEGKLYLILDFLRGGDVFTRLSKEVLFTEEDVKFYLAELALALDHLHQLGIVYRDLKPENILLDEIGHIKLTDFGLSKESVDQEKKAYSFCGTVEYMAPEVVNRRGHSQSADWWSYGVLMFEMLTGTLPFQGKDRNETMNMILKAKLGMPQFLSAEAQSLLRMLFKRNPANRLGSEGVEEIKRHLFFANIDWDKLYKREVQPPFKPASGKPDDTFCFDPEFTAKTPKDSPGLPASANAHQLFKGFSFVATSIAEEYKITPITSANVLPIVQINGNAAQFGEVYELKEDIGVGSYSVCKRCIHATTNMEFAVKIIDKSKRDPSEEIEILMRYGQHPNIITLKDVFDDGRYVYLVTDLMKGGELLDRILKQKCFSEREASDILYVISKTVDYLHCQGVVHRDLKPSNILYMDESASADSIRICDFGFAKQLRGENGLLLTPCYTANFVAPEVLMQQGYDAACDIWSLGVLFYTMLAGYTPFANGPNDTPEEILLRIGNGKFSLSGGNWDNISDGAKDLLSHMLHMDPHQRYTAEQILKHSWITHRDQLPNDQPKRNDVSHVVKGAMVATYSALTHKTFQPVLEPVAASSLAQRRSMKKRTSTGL

With `Cc1ccc(NC(=O)c2cccc(C(F)(F)F)c2)cc1Nc1cc(-c2cccnc2)nc2[nH]ccc12` [HZX-02-059], the remaining binding at 1 µM in [1] came to 72%; in experiment [2], 100%; in experiment [3], 85%; in experiment [4], 86%; in experiment [5], 99%; in [6], 97%. The remaining binding at 1 µM in experiment [7] stood at 72%; in experiment [8] it was 97%; in experiment [9], 77%; in experiment [10], 92%; in experiment [11] it was 80%; in [12], 97%. Moreover, the remaining binding at 1 µM worked out at 81% in [13]; 6.3% in [14]; 93% in experiment [15]; 88% in experiment [16]; 97% in [17]; 100% in experiment [18]. Moreover, the remaining binding at 1 µM in [19] worked out at 100%; in [20], 97%; in experiment [21], 71%; in experiment [22] it was 55%; in experiment [23], 4.5%.
